Laboratory results: patent US10081624B2, “Heterocyclic compound” (Takeda Pharmaceutical Company Limited, priority 2014, dated 2018)

biological target: T1, HDAC6 enzyme (Homo sapiens, UniProt Q9UBN7); assay: HDAC6 enzyme inhibitory assay (HDAC-Glo I/II Assay kit); assay type: biochemical; conditions: 1 μM test compound; read-out: HDAC6 inhibitory rate (%) (1 μM)
T1 construct: prepared by transducing full length HDAC1 and HDAC6 genes into Sf-9 insect cells; GST; purchased SignalChem; host or cells: Sf-9 insect cells
T1 sequence (Q9UBN7 1-1215): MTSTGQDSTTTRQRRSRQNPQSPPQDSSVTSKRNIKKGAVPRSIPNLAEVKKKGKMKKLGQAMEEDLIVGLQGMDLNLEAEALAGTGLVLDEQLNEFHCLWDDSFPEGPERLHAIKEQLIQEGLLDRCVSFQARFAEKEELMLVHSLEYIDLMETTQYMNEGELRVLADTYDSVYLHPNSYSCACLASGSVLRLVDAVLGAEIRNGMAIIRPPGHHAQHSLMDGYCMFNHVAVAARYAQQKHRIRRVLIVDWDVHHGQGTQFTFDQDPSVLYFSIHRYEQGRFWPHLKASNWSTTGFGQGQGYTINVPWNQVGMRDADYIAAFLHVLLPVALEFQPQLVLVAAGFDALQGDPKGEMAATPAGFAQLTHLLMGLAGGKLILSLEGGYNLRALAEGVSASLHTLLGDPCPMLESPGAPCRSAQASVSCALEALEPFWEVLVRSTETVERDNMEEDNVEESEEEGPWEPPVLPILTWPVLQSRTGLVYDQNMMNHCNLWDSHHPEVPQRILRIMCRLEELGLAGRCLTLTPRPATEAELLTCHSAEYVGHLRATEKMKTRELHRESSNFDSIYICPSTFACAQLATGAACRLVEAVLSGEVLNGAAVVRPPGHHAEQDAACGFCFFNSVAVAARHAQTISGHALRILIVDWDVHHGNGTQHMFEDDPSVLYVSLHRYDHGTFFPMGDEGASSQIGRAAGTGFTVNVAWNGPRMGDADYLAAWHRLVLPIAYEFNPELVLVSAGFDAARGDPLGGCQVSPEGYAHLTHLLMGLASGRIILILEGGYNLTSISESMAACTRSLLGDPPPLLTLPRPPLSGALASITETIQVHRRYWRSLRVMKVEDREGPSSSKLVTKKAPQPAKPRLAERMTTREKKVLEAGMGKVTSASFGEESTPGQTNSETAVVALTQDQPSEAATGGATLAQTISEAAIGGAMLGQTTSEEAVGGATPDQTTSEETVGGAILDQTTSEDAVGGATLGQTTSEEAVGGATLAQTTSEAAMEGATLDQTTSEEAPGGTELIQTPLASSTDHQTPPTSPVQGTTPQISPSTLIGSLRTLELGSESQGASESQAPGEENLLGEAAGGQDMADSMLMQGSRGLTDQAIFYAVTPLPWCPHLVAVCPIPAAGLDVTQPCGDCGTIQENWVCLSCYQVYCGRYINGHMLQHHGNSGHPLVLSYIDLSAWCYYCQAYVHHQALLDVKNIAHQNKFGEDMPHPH
Description: HDAC1 enzyme and HDAC6 enzyme each prepared by transducing full length HDAC1 and HDAC6 genes into Sf-9 insect cells and purifying by GST affinity column were purchased from SignalChem. Using these enzymes, HDAC1 and/or HDAC6 enzyme inhibitory activities of the compound of the present invention were evaluated. Enzymes were used after preserved at −70° C. HDAC1 or HDAC6 enzyme inhibitory activity of the compound of the present invention was measured using HDAC-Glo™ I/II Assay kit (Promega) according to the following experimental method. The test compound diluted with assay buffer (24 mM Tris-HCl (pH 7.5), 1 mM MgCl2, 0.35 mM KCl, 135 mM NaCl, 0.6 mM Glutathione, 0.01% Tween-20) was added to a 384-well plate by each 2 μL. Then, HDAC1 or HDAC6 enzyme solution diluted with assay buffer was added thereto by each 4 μL, and the plate was incubated at room temperature for 60 min. After incubated, HDAC substrate-Developer solution prepared according to Promega protocol attached to the assay kit was added to the 384-well plate by each 2 μL, and the enzyme reaction was started. After reacting at room temperature for 20 min, luminescence level was measured using plate reader Envision (PerkinElmer). The inhibitory activity of each compound was calculated as a relative activity value when luminescence level in wells without enzyme is considered as 100% inhibition.

inhibition at 1 µM | Compound
99% | O=C(NC[C@H]1COCCN1C(=O)c1cc(F)cc(F)c1)c1ccc(-c2noc(C(F)(F)F)n2)cn1 [Example 186, N-(((3S)-4-(3,5-difluorobenzoyl)morpholin-3-yl)methyl)-5-(5-(trifluoromethyl)-1,2,4-oxadiazol-3-yl)pyridine-2-carboxamide]
94% | N#Cc1ccccc1C(=O)N1CCOC[C@@H]1CNC(=O)c1ccc(-c2noc(C(F)(F)F)n2)cn1 [Example 187, N-(((3S)-4-(2-cyanobenzoyl)morpholin-3-yl)methyl)-5-(5-(trifluoromethyl)-1,2,4-oxadiazol-3-yl)pyridine-2-carboxamide]
95% | N#Cc1cccc(C(=O)N2CCOC[C@@H]2CNC(=O)c2ccc(-c3noc(C(F)(F)F)n3)cn2)c1 [Example 188, N-(((3S)-4-(3-cyanobenzoyl)morpholin-3-yl)methyl)-5-(5-(trifluoromethyl)-1,2,4-oxadiazol-3-yl)pyridine-2-carboxamide]
95% | N#Cc1cc(F)cc(C(=O)N2CCOC[C@@H]2CNC(=O)c2ccc(-c3noc(C(F)(F)F)n3)cn2)c1 [Example 189, N-(((3S)-4-(3-cyano-5-fluorobenzoyl)morpholin-3-yl)methyl)-5-(5-(trifluoromethyl)-1,2,4-oxadiazol-3-yl)pyridine-2-carboxamide]
95% | N#Cc1ccc(C(=O)N2CCOC[C@@H]2CNC(=O)c2ccc(-c3noc(C(F)(F)F)n3)cn2)cc1 [Example 190, N-(((3S)-4-(4-cyanobenzoyl)morpholin-3-yl)methyl)-5-(5-(trifluoromethyl)-1,2,4-oxadiazol-3-yl)pyridine-2-carboxamide]
96% | O=C(NC[C@H]1COCCN1C(=O)c1ccncc1)c1ccc(-c2noc(C(F)(F)F)n2)cn1 [Example 191, N-(((3S)-4-isonicotinoylmorpholin-3-yl)methyl)-5-(5-(trifluoromethyl)-1,2,4-oxadiazol-3-yl)pyridine-2-carboxamide]
94% | Cn1nccc1C(=O)N1CCOC[C@@H]1CNC(=O)c1ccc(-c2noc(C(F)(F)F)n2)cn1 [Example 192, N-(((3S)-4-((1-methyl-1H-pyrazol-5-yl)carbonyl)morpholin-3-yl)methyl)-5-(5-(trifluoromethyl)-1,2,4-oxadiazol-3-yl)pyridine-2-carboxamide]
96% | Cc1ncsc1C(=O)N1CCOC[C@@H]1CNC(=O)c1ccc(-c2noc(C(F)(F)F)n2)cn1 [Example 196, N-(((3S)-4-((4-methyl-1,3-thiazol-5-yl)carbonyl)morpholin-3-yl)methyl)-5-(5-(trifluoromethyl)-1,2,4-oxadiazol-3-yl)pyridine-2-carboxamide]
97% | O=C(NC[C@H]1COCCN1C(=O)c1cccs1)c1ccc(-c2noc(C(F)(F)F)n2)cn1 [Example 197, N-(((3S)-4-(2-thienylcarbonyl)morpholin-3-yl)methyl)-5-(5-(trifluoromethyl)-1,2,4-oxadiazol-3-yl)pyridine-2-carboxamide]
99% | Cc1ccsc1C(=O)N1CCOC[C@@H]1CNC(=O)c1ccc(-c2noc(C(F)(F)F)n2)cn1 [Example 198, N-(((3S)-4-((3-methyl-2-thienyl)carbonyl)morpholin-3-yl)methyl)-5-(5-(trifluoromethyl)-1,2,4-oxadiazol-3-yl)pyridine-2-carboxamide]
94% | O=C(NC[C@H]1COCCN1C(=O)C1CCc2ccccc2O1)c1ccc(-c2noc(C(F)(F)F)n2)cn1 (stereo partly drawn) [Example 199, N-(((3S)-4-(3,4-dihydro-2H-chromen-2-ylcarbonyl)morpholin-3-yl)methyl)-5-(5-(trifluoromethyl)-1,2,4-oxadiazol-3-yl)pyridine-2-carboxamide]
91% | O=C(NC[C@H]1COCCN1C(=O)c1cc2ccccc2o1)c1ccc(-c2noc(C(F)(F)F)n2)cn1 [Example 200, N-(((3S)-4-(1-benzofuran-2-ylcarbonyl)morpholin-3-yl)methyl)-5-(5-(trifluoromethyl)-1,2,4-oxadiazol-3-yl)pyridine-2-carboxamide]

Further lines, the molecule ahead of its results:

Compound | inhibition at 1 µM
N#Cc1cc(F)cc(C(=O)N2CCOC[C@H]2CNC(=O)c2ccc(-c3noc(C(F)(F)F)n3)cc2)c1 [Example 156, N-(((3R)-4-(3-cyano-5-fluorobenzoyl)morpholin-3-yl)methyl)-4-(5-(trifluoromethyl)-1,2,4-oxadiazol-3-yl)benzamide] | 95%
O=C(NCC1Cc2ccccc2N1C(=O)C1CC1)c1ccc(-c2noc(C(F)(F)F)n2)cc1 (stereo not shown) [Example 166, N-((1-(cyclopropylcarbonyl)-2,3-dihydro-1H-indol-2-yl)methyl)-4-(5-(trifluoromethyl)-1,2,4-oxadiazol-3-yl)benzamide] | 98%
O=C(NCC1Cc2ccccc2N1C(=O)c1cc(Cl)cc(Cl)c1)c1ccc(-c2noc(C(F)(F)F)n2)cc1 (stereo not shown) [Example 168, N-((1-(3,5-dichlorobenzoyl)-2,3-dihydro-1H-indol-2-yl)methyl)-4-(5-(trifluoromethyl)-1,2,4-oxadiazol-3-yl)benzamide] | 70%
O=C(NCC1c2ccccc2CN1C(=O)C1CC1)c1ccc(-c2noc(C(F)(F)F)n2)cc1 (stereo not shown) [Example 169, N-((2-(cyclopropylcarbonyl)-2,3-dihydro-1H-isoindol-1-yl)methyl)-4-(5-(trifluoromethyl)-1,2,4-oxadiazol-3-yl)benzamide] | 84%
O=C(NCC1c2ccccc2CN1C(=O)c1ccccc1)c1ccc(-c2noc(C(F)(F)F)n2)cc1 (stereo not shown) [Example 170, N-((2-benzoyl-2,3-dihydro-1H-isoindol-1-yl)methyl)-4-(5-(trifluoromethyl)-1,2,4-oxadiazol-3-yl)benzamide] | 80%
O=C(NCC1c2ccccc2CN1C(=O)c1cc(Cl)cc(Cl)c1)c1ccc(-c2noc(C(F)(F)F)n2)cc1 (stereo not shown) [Example 171, N-((2-(3,5-dichlorobenzoyl)-2,3-dihydro-1H-isoindol-1-yl)methyl)-4-(5-(trifluoromethyl)-1,2,4-oxadiazol-3-yl)benzamide] | 66%
O=C(NCC1Cc2ccccc2CN1C(=O)C1CC1)c1ccc(-c2noc(C(F)(F)F)n2)cc1 (stereo not shown) [Example 174, N-((2-(cyclopropylcarbonyl)-1,2,3,4-tetrahydroisoquinolin-3-yl)methyl)-4-(5-(trifluoromethyl)-1,2,4-oxadiazol-3-yl)benzamide] | 94%
O=C(NCC1Cc2ccccc2CN1C(=O)c1cc(Cl)cc(Cl)c1)c1ccc(-c2noc(C(F)(F)F)n2)cc1 (stereo not shown) [Example 176, N-((2-(3,5-dichlorobenzoyl)-1,2,3,4-tetrahydroisoquinolin-3-yl)methyl)-4-(5-(trifluoromethyl)-1,2,4-oxadiazol-3-yl)benzamide] | 82%
O=C(NCC1COCCN1C(=O)c1ccccc1)c1ccc(-c2noc(C(F)(F)F)n2)nc1 (stereo not shown) [Example 180, N-((4-benzoylmorpholin-3-yl)methyl)-6-(5-(trifluoromethyl)-1,2,4-oxadiazol-3-yl)nicotinamide] | 91%
O=C(NC[C@H]1COCCN1C(=O)c1cccc(F)c1)c1ccc(-c2noc(C(F)(F)F)n2)cn1 [Example 185, N-(((3S)-4-(3-fluorobenzoyl)morpholin-3-yl)methyl)-5-(5-(trifluoromethyl)-1,2,4-oxadiazol-3-yl)pyridine-2-carboxamide] | 97%
